Laboratory results from patent US20120322843A1, “GENOTYPE SPECIFIC METHODS FOR TREATING HUMAN SUBJECTS USING 4-METHYLPYRAZOLE” (RAPTOR THERAPEUTICS INC., priority 2009, published 2012).
“And” between values parts separate entries of the source, which are not always exact repeats. Identical values can stand only once.

Test system: human subjects with reduced or absent ALDH2 activity
Test: Blinded, intra-subject controlled, single dose study of oral 4-MP given before ethanol; serum acetaldehyde measured by HPLC/MS/MS and compared by ALDH2/ADH2 genotype
Assay type: in vivo
Experimental: A blinded, intra-subject controlled, single dose, dose escalation study of 4-MP for mitigation of acetaldehyde related toxicity in subjects with symptoms of inborn altered ethanol metabolism with concomitant ethanol exposure was undertaken.
Twenty-four subjects (n=24) were randomly selected and orally administered 1 mg/kg, 3 mg/kg, or 5 mg/kg of 4-MP, followed 30 minutes later by an oral dose of 20% ethanol ([…]).
Using the same protocol, wherein 4-MP was replaced with placebo, each of the twenty-four randomly selected subjects served as its own control.
The twenty-four randomly selected subjects were then subjected to blood sampling, and the sampled blood analyzed for acetaldehyde levels at select time points following ethanol consumption.
For acetaldehyde analysis, blood samples were prepared by dilution with an internal standard (acetaldehyde-d4), with derivatization of acetaldehyde with dinitrophenyl hydrazine in hydrochloric acid, liquid-liquid portioning and solvent exchange. The derivatization forms an acetaldehyde-dinitrophenyl hydrazine (DNPH) derivative which dramatically increases the boiling point of the molecule and thus its relative stability compared to the acetaldehyde itself (Nagy et al., Rapid Communications in Mass Spectrometry 2004, 18, 2473-2478). The derivatized analytes were separated using a Jones Chromatography (Grace-Vydac). 50 mm×2.1 mm, 3 μm column held in an oven set at 28° C. Two mobile phases were used in a gradient consisting of 30:70 acetonitrile:water versus 90:10 acetonitrile:water with 0.1% formic acid. The derivatized analyte was detected on a High Performance Liquid Chromatograph equipped with a Mass Spectrometer (HPLC/MS/MS). Quantitation was performed using a linear regression curve fit of impurities standards with 1/× weighting, prepared from dilutions of acetaldehyde in water. Samples and standards were injected at 2 μL.
All […] subjects were then genotyped for ALDH2 and ADH2 at the Alcohol Research Center at Indiana University using (i) genomic DNA isolation and (ii) TaqMan assay for allelic discrimination. • i. Genomic DNA isolation: DNA was first isolated using the “Hot:SHOT” method for isolating PCR quality genomic DNA (Truett et al., Biotechniques 2000, 29(1), 52, 54). Briefly, blood blotted on filter paper (3 mm circle) was placed in the well of a 96-well plate and mixed with 75 μL 25 mM NaOH/0.3 mM EDTA solution and heated to 95° C. for 40 minutes, followed by neutralization with 75 μL 40 mM Tris-HCl ([…]) solution. 1-5 microliters were used for each PCR. • ii. TaqMan Assay for Allelic Discrimination: The allelic discrimination assay used a multiplexed (more than one primer/probe pair per reaction), end-point (data is collected at the end of the PCR process) assay. Each assay mix contained two different TaqMan probes (Applied BioSystems, Foster City, Calif.), labeled with VIC or FAM fluorescent reporter dye, which bound preferentially to one of the alleles. The genotype of each sample was determined by the fluorescence levels of the reporter dyes and was clustered on a graph with other samples of the same genotype. Each reaction contained 5 μL of 2×TaqMan Universal PCR Mastermix, No AmpErase UNG, 3.75 μL of water, 0.25 μL, of 40× Assay Mix, and 1 μL of DNA sample. Eight or eleven controls were included on each 96-well plate: two no template controls, two or three heterozygous samples, and two or three of each of the homozygous samples. Thermocycling was carried out in ND Research PTC-200 thermocyclers. The PCR products were then analyzed in an ABI PRISM® 7300 Sequence Detection System (SOS) instrument. SDS Software 1.3.1 converted the raw data to pure dye components and ploted the results of the allelic discrimination on a scatter plot of Allele X versus Allele Y (e.g. ADH2*1 versus ADH2*2); each genotype appeared on the graph as a cluster of points. […]

[1] = Groups A and D (reduced ALDH2 activity, ADH2*1/ADH2*1 or ADH2*1/ADH2*2), n=6, 1 mg/kg 4-MP oral, then ethanol
[2] = Groups A, B, D, F and G (reduced or absent ALDH2 activity), n=23, 1, 3 or 5 mg/kg 4-MP
[3] = Groups F and G (reduced or absent ALDH2 activity, ADH2*2/ADH2*2), n=6, 1 mg/kg 4-MP oral, then ethanol

Cc1cn[nH]c1 [4-MP, 4-methylpyrazole]
Acetaldehyde AUC0-8H mean [1]: 162 ± 18.7 µg·h/mL and 162 µg·h/mL | Cmax mean (serum acetaldehyde) [1]: 41.3 µg/mL | Peak mean acetaldehyde concentration in the blood (FIG. 2) (Groups A and D, 1 mg/kg 4-MP): can be reduced | Reduction in Cmax mean relative to placebo (Groups A and D, 1 mg/kg 4-MP): approximately 36% | Acetaldehyde AUC0-8H mean [2]: 182 µg·h/mL | Cmax mean (serum acetaldehyde) [2]: 64.2 µg/mL | Peak mean acetaldehyde concentration in the blood (FIG. 3) (Groups F and G (ADH2*2/ADH2*2), 1 mg/kg 4-MP): not reduced | Acetaldehyde AUC0-8H mean [3]: 221 µg·h/mL | Cmax mean (serum acetaldehyde) [3]: 89.2 µg/mL | Peak mean acetaldehyde concentration in the blood (FIG. 4) (all subjects with reduced or absent ALDH2 activity, 1, 3 or 5 mg/kg 4-MP): not reduced
